# Results taken from ChEMBL document CHEMBL1629699, “Cell wall thickening is not a universal accompaniment of the daptomycin nonsusceptibility phenotype in Staphylococcus aureus: evidence for multiple resistance mechanisms” (Antimicrob Agents Chemother, 2010).
# Tests used:
# Staphylococcus aureus [1] = assay: AUC in methicillin-resistant sStaphylococcus aureus 11/11; settings: in vitro population analysis
# Staphylococcus aureus [2] = assay: Antimicrobial activity against Staphylococcus aureus CB5053 by Etest
# Cell membrane [3] = assay: Binding affinity to daptomycin-resistant Staphylococcus aureus REF2145 cell membrane assessed as amount of compound bound at 6 ug after 10 mins
# Staphylococcus aureus [4] = assay: Antimicrobial activity against Staphylococcus aureus CB1482 after 24 hrs by plate reader analysis; settings: CB1482, 24 h
# Staphylococcus aureus [5] = assay: Antimicrobial activity against Staphylococcus aureus CB184 after 24 hrs by Etest; settings: CB184, 24 h
# Staphylococcus aureus [6] = assay: Antimicrobial activity against Staphylococcus aureus BMC1001 by Etest
# Staphylococcus aureus [7] = assay: Antimicrobial activity against Staphylococcus aureus CB5054 by Etest; format: functional
# Staphylococcus aureus [8] = assay: Antimicrobial activity against Staphylococcus aureus CB5036 by Etest; format: functional
# Cell membrane [9] = assay: Binding affinity to methicillin-susceptible Staphylococcus aureus 11/11 cell membrane assessed as amount of compound bound at 6 ug after 10 mins
# Staphylococcus aureus [10] = assay: Antimicrobial activity against Staphylococcus aureus CB5035 by Etest; format: functional
# Staphylococcus aureus [11] = assay: Antimicrobial activity against Staphylococcus aureus BMC1002 by Etest; format: functional
# Cell membrane [12] = assay: Binding affinity to methicillin-susceptible Staphylococcus aureus 11/11 cell membrane assessed as amount of compound bound at 8 ug after 10 mins
# Cell membrane [13] = assay: Binding affinity to daptomycin-resistant Staphylococcus aureus REF2145 cell membrane assessed as amount of compound bound at 8 ug after 10 mins
structure (smiles),measurement,setting,value
CCCCCCCCCC(=O)N[C@@H](Cc1c[nH]c2ccccc12)C(=O)N[C@H](CC(N)=O)C(=O)N[C@@H](CC(=O)O)C(=O)N[C@@H]1C(=O)NCC(=O)N[C@@H](CCCN)C(=O)N[C@@H](CC(=O)O)C(=O)N[C@H](C)C(=O)N[C@@H](CC(=O)O)C(=O)NCC(=O)N[C@H](CO)C(=O)N[C@@H]([C@H](C)CC(=O)O)C(=O)N[C@@H](CC(=O)c2ccccc2N)C(=O)O[C@@H]1C,AUC,Staphylococcus aureus [1],8.41 µg/mL
same,MIC,Staphylococcus aureus [2],0.5 µg/mL
same,Activity,Cell membrane [3],0.79 µg/mL
same,MIC,Staphylococcus aureus [4],0.5 µg/mL
same,MIC,Staphylococcus aureus [5],4 µg/mL
same,MIC,Staphylococcus aureus [6],0.5 µg/mL
same,MIC,Staphylococcus aureus [7],2 µg/mL
same,MIC,Staphylococcus aureus [8],2 µg/mL
same,Activity,Cell membrane [9],2.03 µg/mL
same,MIC,Staphylococcus aureus [10],0.38 µg/mL
same,MIC,Staphylococcus aureus [11],2 µg/mL
CN[C@H](CC(C)C)C(=O)N[C@H]1C(=O)N[C@@H](CC(N)=O)C(=O)N[C@H]2C(=O)N[C@H]3C(=O)N[C@H](C(=O)N[C@H](C(=O)O)c4cc(O)cc(O)c4-c4cc3ccc4O)[C@H](O)c3ccc(c(Cl)c3)Oc3cc2cc(c3O[C@@H]2O[C@H](CO)[C@@H](O)[C@H](O)[C@H]2O[C@H]2C[C@](C)(N)[C@H](O)[C@H](C)O2)Oc2ccc(cc2Cl)[C@H]1O [VANCOMYCIN],AUC,Staphylococcus aureus [1],5.96 µg/mL
same,Activity,Cell membrane [12],1.81 µg/mL
same,Activity,Cell membrane [13],1.78 µg/mL
